Data reported in publication PMC3820767, “Turning Defense into Offense: Defensin Mimetics as Novel Antibiotics Targeting Lipid II” (PLoS Pathogens, 2013).
Where two headings read alike, the source gives them in different places.

How the values were obtained:
[1] = test system: Staphylococcus aureus ATCC 29213; assay: Antibacterial killing, 96-well turbidimetric (modified vCC) assay; type: cell-based; conditions: Table S3; concentration at which 100% killing occurred, no bacterial regrowth; No = not active
Procedure: (§1) The antibacterial activity of defensin mimetics against Staphylococcus aureus ATCC 29213 and Escherichia coli 25922 was carried out in a 96-well turbidimetric assay essentially as described previously with the following modifications: bacteria were exposed for 30 min to compounds in 10 mM phosphate buffer containing 5% DMSO prior to addition of 2× Muller-Hinton medium. Bacterial growth was monitored for 12 hours and data were analyzed as described. Determination of MICs was performed by Micromyx, LLC (Kalamazoo, Michigan) according to CLSI standards.

[2] = test system: Escherichia coli ATCC 25922; assay: as above; type: cell-based; conditions: Table S3; concentration at which 100% killing occurred, no bacterial regrowth; No = not active
Procedure: as §1

[3] = Surface Plasmon Resonance binding to immobilized 3-Lipid II; conditions: Table S3; SPR, initial determination at 10 µM
Procedure: Surface Plasmon Resonance binding experiments were carried out on a BIAcore T100 system (BIAcore Inc., Piscataway, NY) at 25°C. The assay buffer was 10 mM HEPES, 150 mM NaCl, 0.05% surfactant P20, pH 7.4 (±3 mM EDTA) supplemented with 10% DMSO. […] For initial determination of binding, defensin mimetics were introduced into the flow-cells (30 µl/min) in the running buffer at 10 µM. Resonance signals were corrected for nonspecific binding by subtracting the background of the control flow-cell. After each analysis, the sensor chip surfaces were regenerated with 50 mM NaOH for 30 s at a flow rate 100 µl/min, and equilibrated with the buffer prior to next injection. For binding kinetics studies, binding isotherms were analyzed with manufacturer-supplied software for BIAcore T100.

Caco-2 = assay: Cytotoxicity by MTT assay; type: cell-based, human

Compound | active against S.aureus (IC100%) [1] | active against E.coli (IC100%) [2] | Binding on Lipid II? [3] | IC50 (Caco-2) [µM] | cytotoxic for Caco II (C50% survival) (Caco-2) | cytotoxic for Caco II (C50% survival) (Caco-2; Table S3, No = not cytotoxic) | IC50 (Caco-2; Table S3, No = not cytotoxic, read-out: cytotoxic for Caco II (C50% survival)) [µM]
Oc1ccc(O)c2c1C1c3ccccc3C2c2ccccc21 [Compound 5190620, pentacyclo[6.6.6.0^{2,7}.0^{9,14}.0^{15,20}]icosa-2(7),3,5,9,11,13,15,17,19-nonaene-3,6-diol] | 62,5 µM | No | No | 3.7 | – | – | –
OCCSc1ccc(Cc2ccc(SCCO)cc2)cc1 [Compound 5210734, 2,2'-[methylenebis(4,1-phenylenethio)]diethanol] | No | No | No | – | No | – | –
OCCSc1ccc(-c2ccc(SCCO)cc2)cc1 [Compound 5230234, 2,2'-[4,4'-biphenyldiylbis(thio)]diethanol] | No | No | No | – | – | No | –
C(#Cc1ccccc1)CN(CC#Cc1ccccc1)CCCCCCN(CC#Cc1ccccc1)CC#Cc1ccccc1.Cl.Cl [Compound 5230300, N,N,N',N'-tetrakis(3-phenyl-2-propyn-1-yl)-1,6-hexanediamine dihydrochloride] | No | No | No | – | No | – | –
CCCCN(CC#Cc1ccc(C#CCN(CCCC)CCCC)cc1)CCCC.Cl.Cl [Compound 5230313, 3,3'-(1,4-phenylene)bis(N,N-dibutyl-2-propyn-1-amine) dihydrochloride] | No | No | Yes | 366 | – | – | –
Fc1ccc(N2CCN(Cc3ccc(-c4ccccc4)cc3)CC2)cc1 [Compound 5267798, 1-(4-biphenylylmethyl)-4-(4-fluorophenyl)piperazine] | No | No | No | – | No | – | –
Clc1ccc(N2CCN(Cc3ccc(-c4ccccc4)cc3)CC2)cc1 [Compound 5270046, 1-(4-biphenylylmethyl)-4-(4-chlorophenyl)piperazine] | No | No | No | – | No | – | –
FC(F)(F)c1cccc(N2CCN(Cc3ccc4c(c3)Cc3ccccc3-4)CC2)c1 [Compound 5418391, 1-(9H-fluoren-2-ylmethyl)-4-[3-(trifluoromethyl)phenyl]piperazine] | No | No | No | 159 | – | – | –
FC(F)(F)c1cccc(N2CCN(CCc3ccccc3)CC2)c1 [Compound 5422765, 1-(2-phenylethyl)-4-[3-(trifluoromethyl)phenyl]piperazine] | No | No | Yes | 130 | – | – | –
CCN(CC)c1ccc(CN2CCN(c3cccc(C(F)(F)F)c3)CC2)cc1 [Compound 5427129, N,N-diethyl-4-({4-[3-(trifluoromethyl)phenyl]-1-piperazinyl}methyl)aniline] | (No) | No | Yes | 192 | – | – | –
CN(C)c1ccc(C=CCN2CCN(Cc3ccccc3)CC2)cc1 [Compound 5429346, 4-[3-(4-benzyl-1-piperazinyl)-1-propen-1-yl]-N,N-dimethylaniline] | 500 µM | No | Yes | 132 | – | – | –
CCCN1CCC(NCc2cccc(C(F)(F)F)c2)CC1 [Compound 5452876, 1-propyl-N-[3-(trifluoromethyl)benzyl]-4-piperidinamine] | No | No | No | – | No | – | –
Fc1ccc(N2CCN(C3CCN(Cc4ccccc4)CC3)CC2)cc1 [Compound 5457685, 1-(1-benzyl-4-piperidinyl)-4-(4-fluorophenyl)piperazine] | No | No | No | – | No | – | –
CC(CCc1ccc(O)cc1)NCCc1ccccc1 (stereo not shown) [Compound 5460400, 4-{3-[(2-phenylethyl)amino]butyl}phenol] | No | No | No | – | – | No | –
CC[n+]1c(/C=C/C=C2\N(C)c3ccccc3C2(C)C)sc2ccccc21.[O-][Cl+3]([O-])([O-])[O-] [Compound 5660386, 3-ethyl-2-[(1E)-3-[(2Z)-1,3,3-trimethyl-2,3-dihydro-1H-indol-2-ylidene]prop-1-en-1-yl]-1,3-benzothiazol-3-ium perchlorate] | 7,8 µM | 125 µM | No | – | – | – | 5.6
Cc1ccc(CN2CCC(N3CCN(c4ccccc4F)CC3)CC2)cc1 [Compound 6711103, 1-(2-fluorophenyl)-4-[1-(4-methylbenzyl)-4-piperidinyl]piperazine] | No | No | No | – | No | – | –
O=C(O)C(=O)O.c1ccc(CCCN2CCC(N3CCN(c4ccccc4)CC3)CC2)cc1 [Compound 6785396, 1-phenyl-4-[1-(3-phenylpropyl)-4-piperidinyl]piperazine oxalate] | No | No | No | 168 | – | – | –
CC(C)(O)C#Cc1ccc(C#Cc2ccc(C#CC(C)(C)O)cc2)cc1 [Compound 7191067, 4,4'-(1,2-ethynediyldi-4,1-phenylene)bis(2-methyl-3-butyn-2-ol)] | No | No | No | – | No | – | –
Cc1ccc(CN2C(=O)c3ccccc3C2(O)Cc2ccccc2)cc1 (stereo not shown) [Compound 7832238, 3-benzyl-3-hydroxy-2-[(4-methylphenyl)methyl]-2,3-dihydro-1H-isoindol-1-one] | No | No | No | – | No | – | –
CC(C)CCCC(C)C1CCC2C3CC=C4CC(O)CCC4(C)C3CCC12C (stereo not shown) [Compound N050-0022, 2,15-dimethyl-14-(6-methylheptan-2-yl)tetracyclo[8.7.0.0^{2,7}.0^{11,15}]heptadec-7-en-5-ol] | No | No | No | 123 | – | – | –
O=C(CSc1nc(-c2ccccc2)c(-c2ccccc2)n1-c1ccccc1)N1CCCc2ccccc21 [ST4098270, 1-(1,2,3,4-tetrahydroquinolin-1-yl)-2-[(1,4,5-triphenyl-1H-imidazol-2-yl)sulfanyl]ethan-1-one] | No | No | No | – | No | – | –
CCN1/C(=C\C=C\c2sc3c4ccccc4[se]c3[n+]2CC)Sc2c1[se]c1ccccc21 [STK368153, 3-ethyl-2-[(1E,3E)-3-(3-ethyl[1]benzoselenopheno[2,3-d][1,3]thiazol-2(3H)-ylidene)prop-1-en-1-yl][1]benzoselenopheno[2,3-d][1,3]thiazol-3-ium] | 7,8 µM | 7,8 µM | Yes | 9.6 | – | – | –
